Key:
[1] = test system: Vero; experiment: (§1) Cytotoxicity against Vero cells was determined.; assay type: cell-based; settings: Chlorocebus sabaeus
[2] = (§2) Toxicity against human peripheral blood mononuclear (PBM) cells
[3] = test system: Human immunodeficiency virus 1; experiment: Anti-HIV activity was determined; assay type: functional, organism-based
[4] = test system: CCRF-CEM; experiment: Cytotoxicity against CEM cells; assay type: cell-based, Homo sapiens
[5] = Anti-HIV activity against human peripheral blood mononuclear (PBM) cell lines infected with XxBRU Pitt (FTC sensitive isolate); assay type: functional
[6] = Anti-HIV activity against human peripheral blood mononuclear (PBM) cell lines infected with M184V Pitt (FTC resistant isolate); assay type: functional
[7] = Half life was determined.; assay type: ADME
[8] = test system: Vero; experiment: as §1; assay type: functional, cell-based; settings: Chlorocebus sabaeus
[9] = Half life at pH 2.0; assay type: ADME; settings: buffer
[10] = as §2; assay type: functional
[11] = test system: CCRF-CEM; experiment: Cytotoxicity against CEM cells was determined.; assay type: functional, cell-based; settings: Homo sapiens
[12] = human, peripheral blood mononuclear (PBM) cells, IC50

SMILES | IC50 [1] | IC50 [2, 12] | EC50 ([3]; Human immunodeficiency virus 1) | IC50 ([4]; Homo sapiens, CCRF-CEM) | EC50 [3] | other results
Nc1nc(F)nc2c1ncn2[C@@H]1O[C@H](CO)C=C1F | > 100 µM | > 100 µM | > 100 µM | > 100 µM | – | –
OC[C@@H]1C=C(F)[C@H](n2cnc3c(O)ncnc32)O1 | 87.7 µM | 92.7 µM | 1 µM | > 100 µM | – | EC50 [5]: 2800 nM; EC50 [6]: 2500 nM
Nc1nc(N)c2ncn([C@@H]3O[C@H](CO)C=C3F)c2n1 | > 100 µM | > 100 µM | 3 µM | > 100 µM | – | –
Nc1nc(F)nc2c1ncn2[C@H]1O[C@H](CO)C=C1F | 16.1 µM | 41.2 µM | 3.97 µM | 28.3 µM | – | –
Nc1nc(N)c2ncn([C@@H]3O[C@@H](CO)C=C3F)c2n1 | > 100 µM | > 100 µM | > 100 µM | > 100 µM | – | –
OC[C@@H]1C=C(F)[C@@H](n2cnc3c(O)ncnc32)O1 | > 100 µM | > 100 µM | > 100 µM | > 100 µM | – | –
Cc1cn([C@@H]2O[C@H](CO)C=C2F)c(=O)nc1N | > 100 µM | > 100 µM | > 100 µM | > 100 µM | – | –
Nc1nc(Cl)c2ncn([C@@H]3O[C@H](CO)C=C3F)c2n1 (stereo in doubt; 11) | – | – | – | – | 4.3 µM | IC50 [2]: 98.8 µM; IC50 ([4]; ccrf-cem): > 100 µM
Nc1nc(Cl)c2ncn([C@@H]3O[C@H](CO)C=C3F)c2n1 (stereo in doubt; 13) | > 100 µM | 77.4 µM | – | – | > 75 µM | IC50 ([4]; ccrf-cem): 30.2 µM
Nc1ncnc2c1ncn2[C@@H]1O[C@H](CO)C=C1F (stereo in doubt; 14) | – | – | – | – | 0.44 µM | half-life [7]: 41.6 min; IC50 [8]: > 100 µM; EC50 [5]: 460 nM; half-life [9]: 3 days; IC50 [10]: 68.3 µM; EC50 [6]: 800 nM; IC50 [11]: 57.6 µM
Nc1ncnc2c1ncn2[C@@H]1O[C@H](CO)C=C1F (stereo in doubt; 15) | > 100 µM | > 100 µM | – | > 100 µM | > 100 µM | –
Nc1nc(O)c2ncn([C@@H]3O[C@H](CO)C=C3F)c2n1 (stereo in doubt; 18) | – | – | – | – | – | EC50 [6]: 11200 nM
Nc1nc(O)c2ncn([C@@H]3O[C@H](CO)C=C3F)c2n1 (stereo in doubt; 19) | > 100 µM | > 100 µM | – | > 100 µM | 18.3 µM | –
Nc1ccn([C@@H]2O[C@H](CO)C=C2F)c(=O)n1 (stereo in doubt; 28) | – | – | – | – | 2.6 µM | IC50 [2]: 7.3 µM; IC50 ([4]; ccrf-cem): 35.3 µM
Nc1ccn([C@@H]2O[C@H](CO)C=C2F)c(=O)n1 (stereo in doubt; 29) | > 100 µM | – | – | – | > 100 µM | IC50 [2]: > 100 µM; IC50 ([4]; ccrf-cem): > 100 µM
Nc1nc(=O)n([C@@H]2O[C@H](CO)C=C2F)cc1F (stereo in doubt; 30) | > 100 µM | > 100 µM | – | > 100 µM | 0.82 µM | EC50 [5]: 3100 nM; EC50 [6]: 9610 nM
Nc1nc(=O)n([C@@H]2O[C@H](CO)C=C2F)cc1F (stereo in doubt; 31) | – | – | – | – | > 100 µM | –
Nc1ncnc2c1ncn2[C@@H]1O[C@H](CO)[C@@H](O)[C@H]1O [ADENOSINE] | – | – | – | – | – | half-life [7]: 0.417 min
Cc1cn([C@H]2C[C@H](N=[N+]=[N-])[C@@H](CO)O2)c(=O)[nH]c1=O [ZIDOVUDINE] | – | > 100 µM | – | – | – | EC50 [5]: 5 nM; EC50 [6]: 4 nM

Source: ChEMBL document CHEMBL1135890, “Structure-activity relationships of 2'-fluoro-2',3'-unsaturated D-nucleosides as anti-HIV-1 agents” (J Med Chem, 2002)
